We go through one compound from patent publication US20240082431A1, “METALLOHYDROPORPHYRINS FOR PHOTOACOUSTIC IMAGING” (NIRvana Sciences, Inc., priority 2021, published 2024).

The series can be described thus: Photoacoustic imaging of dyes in agar phantoms (VEVO LAZR 2100, PA scanning mode 680-900 nm). Type of series: physicochemical. The settings on record: agar phantom, 63 μM B107, 50 μM ICG in DMF. Here is the method:
Indocyanine Green (ICG), was obtained from Sigma-Aldrich (Catalogue No. I2633; Sigma-Aldrich Corp., St. Louis, Missouri, United States of America). The nickel bacteriochlorin B107 was prepared as described in Sun et al., 2013 and Chen et al, 2012. Each dye was dissolved in N,N-dimethylformamide (DMF) at the desired concentrations prior to the imaging experiments. Molds for preparing agar phantoms were typically 90 mm diameter glass Petri dishes.
A highly purified agar powder (Catalogue No. A7921; Sigma-Aldrich Corp., St. Louis, Missouri, United States of America) was dissolved in water (Reagent Grade, Type I) to a final concentration of 2.0% and heated to the melting temperature of 95° C. in a microwave oven. […] The bottle containing agar was held at 75-85° C. for 1-3 hours using a standard hot plate and a double boiler to avoid scorching (which causes a detectable increase in the absorption coefficient). This waiting period at an elevated temperature allows the slow release of air bubbles and produces an agar solution with negligible absorption and very low turbidity. […]
Photoacoustic imaging was performed using a VEVO® LAZR^2100 imaging system (VisualSonics, Inc., Toronto, Ontario, Canada) equipped with software version 1.7.2. […] The tubing and its associated image regions were isolated by ultrasound and PA signals for PA intensity quantitation. […]

Consider `CC1(C)C(/C=C/C=C/C=C/C=C2\N(CCCCS(=O)(=O)O)c3ccc4ccccc4c3C2(C)C)=[N+](CCCCS(=O)(=O)[O-])c2ccc3ccccc3c21` [ICG, Indocyanine Green], for which the “Max (nm) of PAI signal” value came out at 790 nm (depth 3 mm) and 795 nm (depth 6 mm).
